For assay [1], the system named is HPAC (homozygous mutant KRAS G12D human pancreatic cell line). Description: KRAS 3D-Cell Proliferation Assay, HPAC (CellTiter-Glo 3D, 7 days). It is filed as cell-based. The settings on record: HPAC 3D culture, read-out: Prolif HPAC 3D ATP IC50. Here is the method: (§1) Example 503: KRAS 3D-Cell Proliferation Assays. Cellular potencies of compounds are assessed by evaluating inhibition of proliferation in 3D cultures of homozygous mutant KRAS G12D human pancreatic cell lines (AsPC-1 and HPAC) as compared to a KRAS wild type human lung adenocarcinoma cell line (PC-9 and/or H1975). Cells are seeded into 384-well black round-bottom, ultra-low attachment assay plates in 50 uL cell growth medium (RPMI-1640 with 10% fetal bovine serum and 2 mM L-glutamine). After overnight incubation at 37° C. and 5% CO2, compounds solubilized in DMSO are added as dilution series to the wells in a total volume of 150 nL (0.3% DMSO final). The cells are incubated for 7 days at 37° C. and 5% CO2. Cell proliferation is quantitated by addition of 40 uL/well of CellTiter-GloO 3D (Promega), and the well contents are mixed 20× at high speed using liquid handling automation workstation (Bravo with 384-well head) and centrifuged at 1500 rpm for 2 minutes to eliminate bubbles. This reagent in combination with mechanical disruption releases the cellular ATP to promote activity in a luciferase-based enzyme/substrate chemiluminescent detection system. After a 30-minute incubation under ambient conditions with shaking and an additional 10 minutes without shaking, the luminescence is read on a plate reader (e.g. EnVision [PerkinElmer]). The results are normalized to percent inhibition based on the following control samples: DMSO (0% inhibition) and 1 uM staurosporine (100% inhibition). The normalized luminescence results are plotted against compound concentration, and the data are fit to a 4-parameter Hill equation to determine the IC50 values.
On the technique in general: Cellular ATP, detected with luciferase, serves as a proxy for viable cell number.

For assay [2], the system named is H1975 (KRAS wild type human lung adenocarcinoma cell line). Description: KRAS 3D-Cell Proliferation Assay, H1975 (CellTiter-Glo 3D, 7 days). Conditions: H1975 3D culture, read-out: Prolif H1975 3D ATP IC50. It is filed as cell-based. Here is the method:
as §1

For assay [3], the target named is KRAS G12D (Homo sapiens (Human), UniProt P01116, G12D). Nature of the assay: KRAS G12D LoEnz Biochemical Assay, BODIPY-GDP Exchange TR-FRET (SOS1-mediated nucleotide exchange). The settings on record: read-out: KRas (G12D) GDP HTRF IC50. For orientation: Time-resolved FRET reads energy transfer from a long-lived donor to a nearby acceptor.
In assay [4] the target is T1, KRAS WT (Homo sapiens (Human), UniProt P01116). Description: KRAS WT Biochemical Assay, BODIPY-GDP Exchange TR-FRET (Example 502; 0.06 nM KRAS WT, 15 nM GDP, 300 nM SOS1, 120-minute incubation). The settings on record: read-out: KRas HTRF IC50. In a few lines:
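IC50 from a 4-parameter Hill fit of percent inhibition, itself the TR-FRET 520/490 nm ratio scaled between DMSO and a fully inhibiting control. Reaction: 300 nM SOS1 and 300 nM BODIPY-GDP added to preformed 0.06 nM KRAS WT/15 nM GDP/Tb-streptavidin complex; 120 min incubation; pH 7.5 HEPES, MgCl2, DTT.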

Assay [5] has as its target T1, KRAS WT. Description: KRAS WT Biochemical Assay, BODIPY-GDP Exchange TR-FRET (Example 501; 3 nM KRAS WT, 3 nM SOS1, 60-minute incubation). The settings on record: read-out: KRas HTRF IC50. A digest of the protocol: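 SOS1-mediated exchange assay: 3 nM biotin-KRAS WT with terbium-streptavidin, started with 3 nM SOS1 and 300 nM BODIPY-GDP, HEPES pH 7.5 with MgCl2. TR-FRET (520/490 nm) read after 60 min; normalized to DMSO and full-inhibition control, IC50 from 4-parameter Hill fit.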

Like-named read-outs stand apart in the source and are kept apart here.

KRAS G12D, sequence (P01116-2 other isoform, or with tags, fused parts or gaps G12D): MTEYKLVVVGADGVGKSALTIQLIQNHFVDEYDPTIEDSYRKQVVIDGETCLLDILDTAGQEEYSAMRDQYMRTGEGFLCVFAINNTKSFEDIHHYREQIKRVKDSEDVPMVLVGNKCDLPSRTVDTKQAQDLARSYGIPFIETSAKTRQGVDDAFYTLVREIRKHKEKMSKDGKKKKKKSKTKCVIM
T1 sequence (P01116-2 other isoform, or with tags, fused parts or gaps): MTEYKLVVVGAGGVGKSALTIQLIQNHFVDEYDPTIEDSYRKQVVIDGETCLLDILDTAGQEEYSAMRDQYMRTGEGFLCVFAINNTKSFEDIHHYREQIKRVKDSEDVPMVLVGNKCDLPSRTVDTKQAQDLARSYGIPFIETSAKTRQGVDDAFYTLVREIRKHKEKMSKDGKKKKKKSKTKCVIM

For the molecule `Cc1c(F)c(N)cc(-c2nc3c4c(nc(OC[C@@]56CCC[C@H]5N(C)CCC6)nc4c2F)N2C[C@H]4CC[C@H](N4)[C@H]2[C@H](C)O3)c1C(F)(F)F` (single isomer, unassigned) [126 (isomer 3)], the IC50 in assay [1] (Homo sapiens, HPAC, 168 h) came out at 3.28 nM; in assay [2] (Homo sapiens, NCI-H1975, 168 h), 1430 nM; in assay [3] it was 0.09 nM; in assay [4], 6.31 nM.

For the molecule `Cc1cc(N)c(F)c(-c2nc3c4c(ncnc4c2Cl)N2C[C@H]4CC[C@H](N4)[C@H]2[C@H](C)O3)c1C(F)(F)F` [Compound 93, 3-((5S,5aS,6S,9R)-1-chloro-5-methyl-5a,6,7,8,9,10-hexahydro-5H-4-oxa-3,10a,11,13,14-pentaaza-6,9-methanonaphtho[1,8-ab]heptalen-2-yl)-2-fluoro-5-methyl-4-(trifluoromethyl)aniline], the IC50 in assay [1] (Homo sapiens, HPAC, 168 h) was determined as 836 nM; in assay [2] (Homo sapiens, NCI-H1975, 168 h), 20000 nM; in assay [3], 73.4 nM; in assay [4] it was 14400 nM.

In the case of `Cc1c(F)c(N)cc(-c2nc3c4c(nc(OCC5CC(F)C6CCCN56)nc4c2F)N2C[C@H]4CC[C@H](N4)[C@H]2[C@H](C)O3)c1C(F)(F)F` (single isomer, unassigned) [Compound 160 (diast. 2)], the half-inhibitory concentration (IC50) stood at 6.97 nM in assay [1] (Homo sapiens, HPAC, 168 h); 755 nM in assay [2] (Homo sapiens, NCI-H1975, 168 h); 0.12 nM in assay [3]; 22.5 nM in assay [4].

Consider `Cc1c(F)c(N)cc(-c2nc3c4c(nc(OC[C@]5(CN6C[C@H]7C[C@@H]6CO7)CC5(F)F)nc4c2F)N2C[C@H]4CC[C@H](N4)[C@H]2[C@H](C)O3)c1C(F)(F)F` [166 b, 5-((5S,5aS,6S,9R)-12-((1-(((1R,4R)-2-Oxa-5-azabicyclo[2.2.1]heptan-5-yl)methyl)-2,2-difluorocyclopropyl)methoxy)-1-fluoro-5-methyl-5a,6,7,8,9,10-hexahydro-5H-4-oxa-3,10a,11,13,14-pentaaza-6,9-methanonaphtho[1,8-ab]heptalen-2-yl)-2-fluoro-3-methyl-4-(trifluoromethyl)aniline], for which the IC50 came to 1.49 nM in assay [1], 402 nM in assay [2], 0.15 nM in assay [3] and 5.38 nM in assay [4].

Turning to `Cc1nc(N)cc(-c2nc3c4c(nc(OCC5N(C)CC56CC6(F)F)nc4c2F)N2C[C@H]4CC[C@H](N4)[C@H]2[C@H](C(F)(F)F)O3)c1C(F)(F)F` (single isomer, unassigned) [262 (isomer 4)], the half-inhibitory concentration (IC50) turned out to be 43.4 nM in assay [1] (Homo sapiens, HPAC, 168 h); 4380 nM in assay [2] (Homo sapiens, NCI-H1975, 168 h); 1.14 nM in assay [3]; 35.1 nM in assay [5].

As to `Cc1c(F)c(N)cc(-c2nc3c4c(nc(OCC56CCCN5CCN(C)C6=O)nc4c2F)N2C[C@H]4CC[C@H](N4)[C@H]2[C@H](C)O3)c1C(F)(F)F` (single isomer, unassigned) [137 (isomer 2)], the IC50 turned out to be 193 nM in assay [1] (Homo sapiens, HPAC, 168 h); 20000 nM in assay [2] (Homo sapiens, NCI-H1975, 168 h); 2.34 nM in assay [3]; 454 nM in assay [4].

Turning to `Cc1c(F)c(N)cc(-c2nc3c4c(nc(OC[C@@]56CCC[C@@H]5N(C)CCC6)nc4c2F)N2C[C@H]4CC[C@H](N4)[C@H]2[C@H](C)O3)c1C(F)(F)F` (single isomer, unassigned) [126 (isomer 2)], the IC50 was determined as 5.15 nM in assay [1] (Homo sapiens, HPAC, 168 h); 1770 nM in assay [2] (Homo sapiens, NCI-H1975, 168 h); 0.09 nM in assay [3]; 8.08 nM in assay [4].

For the molecule `Cc1c(F)c(N)cc(-c2nc3c4c(nc(OC[C@@]56CCN5CC(F)(F)C6)nc4c2F)N2C[C@H]4CC[C@H](N4)[C@H]2[C@H](C(F)(F)F)O3)c1C(F)(F)F` (single isomer, unassigned) [263 (diast. 1)], the IC50 was 6.14 nM in assay [1] (Homo sapiens, HPAC, 168 h); 789 nM in assay [2] (Homo sapiens, NCI-H1975, 168 h); 0.26 nM in assay [3]; 5.49 nM in assay [5].

As to `Cc1c(F)c(N)cc(-c2nc3c4c(nc(OC[C@@]56CCCN5C[C@H](F)C6)nc4c2F)N2C[C@H]4CC[C@H](N4)[C@H]2[C@@H](C(F)F)O3)c1C(F)(F)F` (single isomer, unassigned) [238 (isomer 2)], the IC50 in assay [1] (Homo sapiens, HPAC, 168 h) was 2000 nM; in assay [2] (Homo sapiens, NCI-H1975, 168 h), 20000 nM; in assay [3], 13000 nM; in assay [5] it was 4800 nM.

In the case of `Cc1c(F)c(N)cc(-c2nc3c4c(nc(OC[C@@H]5CCC6C[C@@H](C(=O)N(C)C)CCN65)nc4c2F)N2C[C@H]4CC[C@H](N4)[C@H]2[C@H](C)O3)c1C(F)(F)F` (single isomer, unassigned) [133 (isomer 2)], the IC50 in assay [1] (Homo sapiens, HPAC, 168 h) worked out at 22.4 nM; in assay [2] (Homo sapiens, NCI-H1975, 168 h), 1600 nM; in assay [3], 0.15 nM; in assay [4], 14.4 nM.

For `Cc1nc(N)cc(-c2nc3c4c(nc(OCC5N(C)C[C@]56CC6(F)F)nc4c2F)N2C[C@H]4CC[C@H](N4)[C@H]2[C@H](C(F)(F)F)O3)c1C(F)(F)F` (single isomer, unassigned) [262 (isomer 3)], the IC50 came to 971 nM in assay [1] (Homo sapiens, HPAC, 168 h); 20000 nM in assay [2] (Homo sapiens, NCI-H1975, 168 h); 41.1 nM in assay [3]; 1080 nM in assay [5].

For `Cc1c(F)c(N)cc(-c2nc3c4c(nc(OC[C@H]5CC[C@@H]6CN(C)C(=O)CN56)nc4c2F)N2C[C@H]4CC[C@H](N4)[C@H]2[C@H](C)O3)c1C(F)(F)F` (single isomer, unassigned) [131 (isomer 1)], the IC50 in assay [1] was 1430 nM; in assay [2] it was 20000 nM; in assay [3], 13.9 nM; in assay [4] it was 2530 nM.

Turning to `Cc1c(F)c(N)cc(-c2nc3c4c(nc(OCC56CCN5CC(F)(F)C6)nc4c2F)N2C[C@H]4CC[C@H](N4)[C@H]2[C@H](C(F)(F)F)O3)c1C(F)(F)F` (single isomer, unassigned) [263 (diast. 2)], the IC50 stood at 15.4 nM in assay [1] (Homo sapiens, HPAC, 168 h); 336 nM in assay [2] (Homo sapiens, NCI-H1975, 168 h); 0.53 nM in assay [3]; 15.4 nM in assay [5].

For `Cc1cc(N)c(F)c(-c2nc3c4c(ncnc4c2Cl)N2C[C@H]4CC[C@H](N4)[C@H]2[C@H](C)O3)c1C(F)(F)F` (single isomer, unassigned) [Compound 95], the IC50 in assay [1] worked out at 247 nM; in assay [2] it was 6700 nM; in assay [4] it was 3570 nM.

`Cc1c(F)c(N)cc(-c2nc3c4c(nc(OC[C@@]56CCCN5C[C@H](F)C6)nc4c2F)N2CCN[C@@H](C)[C@H]2[C@@H](C)O3)c1C(F)(F)F` (single isomer, unassigned) [234 (isomer 2)]: the IC50 worked out at 2000 nM in assay [1] (Homo sapiens, HPAC, 168 h); 9750 nM in assay [2] (Homo sapiens, NCI-H1975, 168 h); 209 nM in assay [3]; 513 nM in assay [5].

As to `Cc1c(F)c(N)cc(-c2nc3c4c(nc(OC[C@@]56CCCN5C[C@H](F)C6)nc4c2F)N2CCN[C@@H](C)[C@H]2[C@H](C)O3)c1C(F)(F)F` (single isomer, unassigned) [234 (isomer 1)], the IC50 in assay [1] (Homo sapiens, HPAC, 168 h) was determined as 2000 nM; in assay [2] (Homo sapiens, NCI-H1975, 168 h), 8570 nM; in assay [3] it was 1330 nM; in assay [5], 23300 nM.

Take `Cc1c(F)c(N)cc(-c2nc3c4c(nc(OC[C@@]56CCCN5C[C@H](F)C6)nc4c2F)N2CCN[C@H](C)[C@@H]2[C@@H](C)O3)c1C(F)(F)F` (single isomer, unassigned) [234 (isomer 4)]: the IC50 in assay [1] (Homo sapiens, HPAC, 168 h) was 2000 nM; in assay [2] (Homo sapiens, NCI-H1975, 168 h) it was 8500 nM; in assay [3], 589 nM; in assay [5] it was 510 nM.

Consider `Cc1nc(N)cc(-c2nc3c4c(nc(OC[C@H]5N(C)C[C@]56CC6(F)F)nc4c2F)N2C[C@H]4CC[C@H](N4)[C@H]2[C@H](C(F)(F)F)O3)c1C(F)(F)F` (single isomer, unassigned) [262 (isomer 1)], for which the IC50 was determined as 475 nM in assay [1] (Homo sapiens, HPAC, 168 h); 20000 nM in assay [2] (Homo sapiens, NCI-H1975, 168 h); 31.9 nM in assay [3]; 668 nM in assay [5].

With `Cc1cc(N)c(Cl)c(-c2nc3c4c(nc(OC[C@@]56CCCN5C[C@H](F)C6)nc4c2Cl)N2C[C@H]4CC[C@H](N4)[C@H]2[C@H](C)O3)c1C(F)(F)F` (single isomer, unassigned) [Compound 240 (atrop. 2)], the IC50 was 1.88 nM in assay [1], 1060 nM in assay [2], 0.14 nM in assay [3] and 15.1 nM in assay [5].

Broadly, the IC50 is the concentration needed to halve the response being measured.

Values taken from patent US20240025919A1, “AZA-TETRACYCLIC OXAZEPINE COMPOUNDS AND USES THEREOF” (Genentech, Inc., priority 2022, published 2024).
